Source: patent US12097173B2, “Volatile organic compound formulations having antimicrobial activity” (priority 2019, dated 2024)

Columns and labels:
Assay type in all cases: cell-based
[1] = test system: Cercospora beticola; assay: plate bioassay of volatile test mixtures, growth inhibition; conditions: 30 hr at 22° C.; esters with 1:1 v/v propanoic acid and isobutryic acid (acids to ester 7:2 v/v), 9 ul; acids 7 ul
Description: (§1) FIG. 1 illustrates a plate bioassay to determine the bioactivity of various esters when combined with a 1:1 mix of the two organic acids as per Table 2. The test organisms were as follows—Cercospora (dark-lower left bottom) then clockwise—Phytophthora, Verticillium, Sclerotinia, Pythium. Fusarium, Trichoderma, Rhizoctonia, and Aspergillus. The streaks were Saccharomyces (far right bottom) then Candida, E coli and Bacillus (left bottom). A=control plate, and B=plate with System 1 after incubation for 30 hr.
(§2) FIG. 9 depicts the biological activities of various test mixtures against a panel of test microbes. A small plug of each organism was placed in the periphery of the PDA plate. In the center well was placed the test solution in the plastic cup holder. A control plate (A) was also set up. After 30 hr the growth of the test organisms was compared to that of the control and the % inhibition was calculated. The (B) plate contained the test mixture. Measurements were made 30 hr after plate set up.
(§3) FIG. 1. Indicates how the assays were done to yield the data sets in Table 1. The various esters were combined with a 1:1 mixture of propanoic acid and isobutryic acid and these were added 7:2 V/V with the ester to be tested.
(§4) Shown in Table 1, are the inhibition and killing effects of propanoic acid, and isobutryic acid together and alone and with various esters. The tests were conducted over the course of 30 hr at 22° C. Measurements were made on appropriate controls and thus the percentage of inhibition calculations could be made on treatments vs the growth on a control organism (non-treated). The bacteria and yeast like organisms were evaluated on the basis of relative growth rates after 30 hr. Those highlighted areas on the table show those compounds (esters) having the most compatibility with propanoic and isobutryic acid 1:1 v/v mixtures with the appropriate esters at a 7:2 ratio—Systems 1 and 2 above. It is from this test that Systems 1 and 2 were discovered. The acids were added at […] individually and combination of the esters with the acids were added at the […] in the plate assay.
as §2, with “Tests were conducted as similarly described for Systems 1 and 2 above (FIG. 9) to ascertain” for “FIG. 9 depicts”

[2] = test system: Phytophthora cinnamomi; assay: as above; conditions: 30 hr at 22° C.; esters with 1:1 v/v propanoic acid and isobutryic acid (acids to ester 7:2 v/v), 9 ul; acids 7 ul
Description: as §1, §2, §3, §4
as §2, with “Tests were conducted as similarly described for Systems 1 and 2 above (FIG. 9) to ascertain” for “FIG. 9 depicts”

[3] = test system: Pythium ultimum; assay: as above; conditions: 30 hr at 22° C.; esters with 1:1 v/v propanoic acid and isobutryic acid (acids to ester 7:2 v/v), 9 ul; acids 7 ul
Description: as §1, §2, §3, §4
as §2, with “Tests were conducted as similarly described for Systems 1 and 2 above (FIG. 9) to ascertain” for “FIG. 9 depicts”

[4] = test system: Rhizoctonia solani; assay: as above; conditions: 30 hr at 22° C.; esters with 1:1 v/v propanoic acid and isobutryic acid (acids to ester 7:2 v/v), 9 ul; acids 7 ul
Description: as §1, §2, §3, §4
as §2, with “Tests were conducted as similarly described for Systems 1 and 2 above (FIG. 9) to ascertain” for “FIG. 9 depicts”

[5] = test system: Trichoderma viridae; assay: as above; conditions: 30 hr at 22° C.; esters with 1:1 v/v propanoic acid and isobutryic acid (acids to ester 7:2 v/v), 9 ul; acids 7 ul
Description: as §1, §2, §3, §4
as §2, with “Tests were conducted as similarly described for Systems 1 and 2 above (FIG. 9) to ascertain” for “FIG. 9 depicts”

[6] = test system: Verticillium dahliae; assay: as above; conditions: 30 hr at 22° C.; esters with 1:1 v/v propanoic acid and isobutryic acid (acids to ester 7:2 v/v), 9 ul; acids 7 ul
Description: as §1, §2, §3, §4
as §2, with “Tests were conducted as similarly described for Systems 1 and 2 above (FIG. 9) to ascertain” for “FIG. 9 depicts”

[7] = test system: Sclerotinia sclerotiorum; assay: as above; conditions: 30 hr at 22° C.; esters with 1:1 v/v propanoic acid and isobutryic acid (acids to ester 7:2 v/v), 9 ul; acids 7 ul
Description: as §1, §2, §3
The tests were conducted over the course of 30 hr at 22° C. Measurements were made on appropriate controls and thus the percentage of inhibition calculations could be made on treatments vs the growth on a control organism (non-treated). The bacteria and yeast like organisms were evaluated on the basis of relative growth rates after 30 hr. […] The acids were added at […] individually and combination of the esters with the acids were added at the […] in the plate assay.
as §2, with “Tests were conducted as similarly described for Systems 1 and 2 above (FIG. 9) to ascertain” for “FIG. 9 depicts”

[8] = test system: Aspergillus fumigatus; assay: as above; conditions: 30 hr at 22° C.; esters with 1:1 v/v propanoic acid and isobutryic acid (acids to ester 7:2 v/v), 9 ul; acids 7 ul
Description: as §1, §3, §4

[9] = test system: Fusarium subglutinans; assay: as above; conditions: 30 hr at 22° C.; esters with 1:1 v/v propanoic acid and isobutryic acid (acids to ester 7:2 v/v), 9 ul; acids 7 ul
Description: as §1, §3, §4

[10] = test system: Bacillus subtilus; assay: plate bioassay of volatile test mixtures, relative growth of streak; conditions: relative growth after 30 hr at 22° C.; esters with 1:1 v/v propanoic acid and isobutryic acid (7:2 v/v), 9 ul; acids 7 ul
Description: as §1, §2, §3, §4
as §2, with “Tests were conducted as similarly described for Systems 1 and 2 above (FIG. 9) to ascertain” for “FIG. 9 depicts”

[11] = test system: Candida albicans; assay: as above; conditions: relative growth after 30 hr at 22° C.; esters with 1:1 v/v propanoic acid and isobutryic acid (7:2 v/v), 9 ul; acids 7 ul
Description: as §1, §2, §3, §4
as §2, with “Tests were conducted as similarly described for Systems 1 and 2 above (FIG. 9) to ascertain” for “FIG. 9 depicts”

[12] = test system: Escherichia coli; assay: as above; conditions: relative growth after 30 hr at 22° C.; esters with 1:1 v/v propanoic acid and isobutryic acid (7:2 v/v), 9 ul; acids 7 ul
Description: as §1, §2, §3, §4
as §2, with “Tests were conducted as similarly described for Systems 1 and 2 above (FIG. 9) to ascertain” for “FIG. 9 depicts”

[13] = test system: Saccharomyces cerevicae; assay: as above; conditions: relative growth after 30 hr at 22° C.; esters with 1:1 v/v propanoic acid and isobutryic acid (7:2 v/v), 9 ul; acids 7 ul
Description: as §1, §2, §3, §4
as §2, with “Tests were conducted as similarly described for Systems 1 and 2 above (FIG. 9) to ascertain” for “FIG. 9 depicts”

Structure (SMILES) | inhibition of Cercospora beticola [1] [%] | inhibition of Phytophthora cinnamomi [2] [%] | inhibition of Pythium ultimum [3] [%] | inhibition of Rhizoctonia solani [4] [%] | inhibition of Trichoderma viridae [5] [%] | inhibition of Verticillium dahliae [6] [%] | inhibition of Sclerotinia sclerotiorum [7] [%] | inhibition of Aspergillus fumigatus [8] [%] | inhibition of Fusarium subglutinans [9] [%] | growth of Bacillus subtilus [10] | growth of Candida albicans [11] | growth of Escherichia coli [12] | growth of Saccharomyces cerevicae [13]
CCCCOC(=O)C(C)C [Butyl Isobutyrate] | 95 | 0 | 100 | 97 | 40 | 60 | 0 | 0 | 0 | No Growth | Growth Observed | No Growth | Growth Observed
CCOC(=O)C(C)C [Ethyl Isobutyrate] | 95 | 100 | 100 | 100 | 67 | 80 | 90 | 80 | 67 | No Growth | Growth Observed | No Growth | Growth Observed
CCCC(=O)OCCC(C)C [Isoamyl Butyrate] | 100 | 100 | 100 | 100 | 90 | 100 | 95 | 90 | 100 | No Growth | No Growth | No Growth | Growth Observed
CC(C)CCOC(=O)C(C)C [Isoamyl Isobutyrate] | 95 | 97 | 100 | 100 | 67 | 96 | 80 | 80 | 67 | No Growth | Growth Observed | No Growth | Growth Observed
CC(=O)OCC(C)C [Isobutyl Acetate] | 95 | 67 | 100 | 57 | 20 | 60 | 20 | 0 | 67 | Inhibited | Growth Observed | Inhibited | Growth Observed
CCCC(=O)OCC(C)C [Isobutyl Butyrate] | 100 | 33 | 100 | 100 | 47 | 96 | 70 | 0 | 33 | No Growth | Growth Observed | No Growth | Growth Observed
